Source: patent US20100121048A1, “Cyclic Amine Compound and Use Thereof for the Prophylaxis or Treatment of Hypertension” (priority 2006, published 2010)

Target: T1, Human renin (Homo sapiens, UniProt P00797)
T1 construct: taking the active type (67-406); made in house; host or cells: FreeStyle 293-F cells (transient expression of pcDNA3.1(+)/hREN)
T1 sequence (P00797 67-406): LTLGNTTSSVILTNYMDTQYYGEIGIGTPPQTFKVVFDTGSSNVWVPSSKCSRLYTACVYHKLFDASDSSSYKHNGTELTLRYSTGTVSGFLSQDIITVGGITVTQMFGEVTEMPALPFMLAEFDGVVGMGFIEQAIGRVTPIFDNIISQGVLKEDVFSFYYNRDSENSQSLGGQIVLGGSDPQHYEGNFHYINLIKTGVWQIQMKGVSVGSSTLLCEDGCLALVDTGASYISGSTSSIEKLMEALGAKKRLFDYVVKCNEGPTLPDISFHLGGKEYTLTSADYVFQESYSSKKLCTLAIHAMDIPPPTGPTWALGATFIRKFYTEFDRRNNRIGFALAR
Experiment: Measurement of renin inhibition value (human renin, FITC substrate peptide, capillary electrophoresis)
Type: biochemical
Settings: active type renin (67-406), pH 6.0, 37° C., 30 min; for inhibition at 1 µM: test compound 1 μM, read-out: Human Renin Inhibitory Activity: inhibitory activity (%) at 1 μM; for inhibition at 10 µM: test compound 10 μM, read-out: Human Renin Inhibitory Activity: inhibitory activity (%) at 10 μM
Protocol: Human renin was obtained by expressing preprorenin (1-406) in an animal cell, treating the prorenin (24-406) contained in the culture supernatant with trypsin, and taking the active type (67-406).
A plasmid DNA to express human renin in HEK293 cells was prepared as follows. PCR was carried out using human renal cDNA (Clontech Laboratories, Inc., Marathon Ready cDNA) as the template and using two synthetic DNAs (5′-[…]-3′ AND 5′-[…]-3′), and the obtained fragments were cloned using a TOPO TA Cloning Kit (Invitrogen Corp.). The obtained fragments were subcloned into pcDNA3.1(+) that had been cleaved by HindIII and BamHI, thus to obtain a plasmid DNA for human preprorenin expression (PcDNA3.1(+)/hREN).
Expression of human preprorenin was conducted using FreeStyle 293 Expression System (Invitrogen Corp.). According to the manual accompanying the FreeStyle 293 Expression System, the plasmid DNA for human preprorenin expression (pcDNA3.1(+)/hREN) constructed in Experimental Example 1 was used to conduct transient expression by FreeStyle 293-F cells. After transfection of the plasmid DNA, the cells were subjected to shaking culture under the conditions of 37° C., 8% CO2 and 125 rpm for 3 days. A 600-ml aliquot of the culture solution was centrifuged at 2,000 rpm for 10 min to recover the culture supernatant containing prorenin (24-406). The culture supernatant was concentrated by ultrafiltration using a PM10 membrane (Millipore, Inc.) to a volume of about 50 ml, and then was dialyzed against 20 mM Tris-hydrochloric acid (pH 8.0). The dialyzate was fed to a 6-ml RESOURCE Q column (Amersham Biosciences, Inc.) equilibrated with 20 mM Tris-hydrochloric acid (pH 8.0) at a flow rate of 3 ml/min to adsorb the prorenin (24-406). After washing the column with the buffer solution used in the equilibration, elution was carried out by means of a linear concentration gradient of sodium chloride from 0 M to 0.4 M. The fraction containing prorenin (24-406) was collected and concentrated using Vivaspin 20 (molecular weight cut off 10,000; Vivascience, Inc.) to a volume of about 2 ml.
The concentrated liquid was subjected to gel filtration chromatography using HiLoad 16/60 Superdex 200 pg (Amersham Biosciences, Inc.) equilibrated with 20 mM Tris-hydrochloric acid (pH 8.0) containing 0.15 M sodium chloride, at a flow rate of 1.4 ml/min, thus to obtain 3.6 mg of purified prorenin (24-406).
To 3.6 mg of prorenin (24-406) was dissolved in 5.2 ml of 0.1 M Tris-hydrochloric acid (pH 8.0), 12 μg of trypsin (Roche Diagnostics Corp.) was added, and the mixture was allowed to react at 28° C. for 55 min to carry out activation of renin. After the reaction, 0.4 ml of immobilized trypsin inhibitor (Pierce Biotechnology, Inc.) was added to remove the trypsin used in the activation by adsorption. The reaction liquid containing the active type renin was concentrated using Vivaspin 20 (molcular weight cut off 10,000; Vivascience, Inc.), and was diluted with 20 mM Tris-hydrochloric acid (pH 8.0). The diluted liquid was fed to a TSKgel DEAE-5 PW column (7.5 mm I.D.×75 mm, Tosoh Corp.) equilibrated with 20 mM Tris-hydrochloric acid (pH 8.0) at a flow rate of 1 ml/min to adsorb the active type renin (67-406). The column was washed with the buffer solution used for the equilibration, and then elution was carried out by means of a sodium chloride linear concentration gradient from 0 M to 0.3 M, thus to obtain 1.5 mg of a purified product of active type renin (67-406).
5 μl each of the test compound (containing 50% DMSO) was added to each well of a 384-well black plate (Nalge Nunc International Co., Ltd.). Renin was diluted with a buffer solution for reaction (20 mM citric acid-sodium citrate (pH 6.0)) to a concentration of 0.5 μg/ml, and 35 μl each of the dilution was added to each well. […]

inhibition at 1 µM | inhibition at 10 µM | SMILES
100% | 101% | O=C(O)c1ccc(C[C@@H]2CNCCN2C(=O)c2ncn(-c3cccc(N4CCOCC4)c3)c2-c2ccccc2)cc1 [Example 161, 4-[((2R)-1-{[1-(3-morpholinophenyl)-5-phenyl-1H-imidazol-4-yl]carbonyl}piperazin-2-yl)methyl]benzoic acid]
97% | 99% | COc1nc(C(=O)N2CCNC[C@H]2Cc2ccccc2)c(-c2ccccc2)n1-c1ccccc1 [Example 475, (2R)-2-benzyl-1-[(2-methoxy-1,5-diphenyl-1H-imidazol-4-yl)carbonyl]piperazine]
102% | 104% | Cc1cc(C(=O)N2CCNC[C@H]2Cc2ccccc2)c(-c2ccccc2)n1-c1cccc(N2CCOCC2)c1 [Example 105, 4-(3-(3-{[(2R)-2-benzylpiperazin-1-yl]carbonyl}-5-methyl-2-phenyl-1H-pyrrol-1-yl)phenyl]morpholine]
104% | 106% | COc1cccc(-n2c(C)cc(C(=O)N3CCNC[C@H]3Cc3ccccc3)c2-c2ccccc2)c1OC [Example 43, (2R)-2-benzyl-1-{[1-(2,3-dimethoxyphenyl)-5-methyl-2-phenyl-1H-pyrrol-3-yl]carbonyl}piperazine]
100% | 102% | CS(=O)(=O)c1ccc(COC[C@@H]2CNCCN2C(=O)c2ncn(-c3cccc(N4CCOCC4)c3)c2-c2ccccc2)cc1 [Example 472, 4-[3-(4-{[(2S)-2-({[4-(methylsulfonyl)benzyl]oxy}methyl)piperazin-1-yl]carbonyl}-5-phenyl-1H-imidazol-1-yl)phenyl]morpholine]
104% | 103% | O=C(c1ncn(-c2cccc(N3CCOCC3)c2)c1-c1ccccc1)N1CCNC[C@H]1Cc1ccccc1 [Example 56, 4-(3-(4-{[(2R)-2-benzylpiperazin-1-yl]carbonyl}-5-phenyl-1H-imidazol-1-yl)phenyl]morpholine]

More lines, now with the values behind:

SMILES | inhibition at 1 µM | inhibition at 10 µM
O=C(c1ncn(C2Cc3ccccc3C2)c1-c1ccccc1)N1CCNC[C@H]1Cc1ccccc1 [Example 73, (2R)-2-benzyl-1-{[1-(2,3-dihydro-1H-inden-2-yl)-5-phenyl-1H-imidazol-4-yl]carbonyl}piperazine] | 97% | 101%
O=C(c1ncn(C2CCCN(S(=O)(=O)c3ccccc3)C2)c1-c1ccccc1)N1CCNC[C@H]1Cc1ccccc1 (stereo partly drawn) [Example 476, (2R)-2-benzyl-1-({5-phenyl-1-[1-(phenylsulfonyl)piperidin-3-yl]-1H-imidazol-4-yl}carbonyl)piperazine] | 99% | 99%
CCCCNc1ccccc1-n1ccc(C(=O)N2CCNCC2Cc2ccccc2)c1-c1ccccc1 (racemic) [Example 99, 2-(3-[(2-benzylpiperazin-1-yl)carbonyl]-2-phenyl-1H-pyrrol-1-yl}-N-butylaniline] | 105% | 107%
COc1ccc(S(=O)(=O)N2CCCC(n3cnc(C(=O)N4CCNC[C@H]4Cc4ccccc4)c3-c3ccccc3)C2)cn1 (stereo partly drawn) [Example 477, (2R)-2-benzyl-1-[(1-{1-[(6-methoxypyridin-3-yl)sulfonyl]piperidin-3-yl}-5-phenyl-1H-imidazol-4-yl)carbonyl]piperazine] | 102% | 104%
O=C(C[C@H](CCc1ccccc1)n1cnc(C(=O)N2CCNC[C@H]2Cc2ccccc2)c1-c1ccccc1)N1CCOCC1 [Example 478, 4-[(3S)-3-(4-{[(2R)-2-benzylpiperazin-1-yl]carbonyl}-5-phenyl-1H-imidazol-1-yl)-5-phenylpentanoyl]morpholine] | 99% | 101%
COc1cccc(-n2cnc(C(=O)N3CCNC[C@H]3Cc3ccccc3)c2-c2ccccc2)c1OC [Example 57, (2R)-2-benzyl-1-([1-(2,3-dimethoxyphenyl)-5-phenyl-1H-imidazol-4-yl]carbonyl}piperazine] | 108% | 108%
